How the values were obtained:
[1] = system: memory T cells (low CD62L, high CD44); experiment: Flow cytometric analysis of memory T cells (CD62L low, CD44 high) in splenocytes of vaccinated mice; assay type: in vivo, C57BL/6 mice; conditions: one week post-third dose
Experimental: C57BL/6 mice were obtained from NLAC Taiwan. Mice between 4 and 8 weeks of age were vaccinated with 100 μL via the subcutaneous (SC) route and one dose per week for three weeks. Mice was sacrificed one week after the third vaccination, serum and splenocytes were harvested.
Spleen tissue was isolated from mice and processed into single cell suspensions using PP micro centrifuge sample pestle. Splenocytes were seeding on 6 well plate at 2×10^7/2 mL, cultivation for 2 h in a CO2 incubator. After 2 h, stimulate with or without E7-peptide for 2 hours at 37° C., then treat cell with protein transport inhibitor Monensin (Invitrogen, Cat. no. 00-4505-51) and Brefeldin (Invitrogen, Cat. no. 00-4506-51) for 4 hours at 37° C. Afterward, cells were harvest then washed twice with PBS and then stained for surface CD3 (BioLegend, Cat. no. 100222), CD4 (BioLegend, Cat. no. 100540), CD8 (Invitrogen, Cat. no. 11-0081-86), CD44 (BioLegend, Cat. no. 103008), CD62L (BioLegend, Cat. no. 104412) for 30 minutes at 4° C. After washing, cells were fixed for 30 minutes at room temperature using IC fixation buffer (Invitrogen, Cat. no. 00-8222-49), then cells were washed in permeabilization buffer (Invitrogen, Cat. no. 00-8333-56) and stained with IFNγ antibody (Invitrogen, Cat. no. 48-7311-82), IL-2 antibody (Invitrogen, Cat. no. 25-7021-82) and TNFα antibody (Invitrogen, Cat. no. 48-7321-82). One point five million cells events were acquired on the Backman Coulter Gallions. Flow data were analyzed using Kaluza software (ver. 1.2). Populations were first gated on viable mononuclear cell using forward and side scatter, then gated on CD3^+/CD4^+ or CD3^+/CD8^+ T cells. Next, sub-gated CD62L^−/CD44^+ memory T cells. Subsequently, sub-gated on either CD4^+/IFNγ, CD8^+/IFNγ^+, CD4^+/IL-2^+, CD8^+/IL-2^+, CD4/TNFα^+ and CD8^+/TNFα^+ double-positive cells.
Two adhesion molecules associated with differentiating naive and activated/memory T cells are CD62L (L-selectin) and CD44 (H-CAM). […] Flow-cytometric analysis (individual mice) of T-cells as frequency of viable CD8^+ or CD4^+ splenocytes expressing IFN-γ, TNF-α, or IL-2. Cytokine positivity was determined.

Female BALB/c mice = experiment: Acute toxicity with increased dose of saponin (survival, weight change, spleen and hepato somatic index); assay type: in vivo
Excerpt: FIG. 8 (A) The percentage of median weight change of mice in 5 days. The values are presented as means±S.E.M. (n=5). (B) Hepato somatic index and (C) Spleen somatic index. The values are presented as means±S.E.M. (n=5). The percentage of median weight change of mice which was received increased dose of saponin adjuvant 56 was all less than 5%. The spleen somatic index and hepato somatic index in all experimental group were no change with compare to control group.
Acute toxicity was examined with increased dose of saponin 56 form 100 μg to 1000 μg. The result was presented as the number of surviving animal per group of 5 mice (Female BALB/c mice, 9 weeks) in 7 days. […] (FIG. 8)
The results represent in FIG. 8. […] The spleen somatic index and hepato somatic index in all experimental group were no change with compare to control group.

[2] = system: PEK antigen (PE-E7-K3)-specific cytokine-secreting splenocytes; experiment: ELISpot of IFNγ and IL-2 production by splenocytes of mice vaccinated with PEK antigen plus saponin adjuvant; assay type: in vivo, C57BL/6 mice; conditions: 50 μg saponin + PEK 100 μg, s.c.; splenocytes one week after third dose
PR8 virus = experiment: Influenza challenge: NP peptide vaccine with compound 56, then live PR8 virus infection; assay type: in vivo, C57BL/6 mice; conditions: NPI/II plus compound 56 (50 μg s.c. or 30 μg i.n.); two vaccinations; 110 PFU PR8
Experimental: Female C57BL/6 mice 6-8 weeks of age were immunized through either s.c. injection with 100p of vaccines or the intranasal route with 30 μl of vaccines. All vaccine liquids were freshly prepared and diluted with 0.5% Tween 20 PBS. Vaccines used for the subcutaneous injection contained immunogens NP366-374/NP311-325 peptides, alone or combined with compound 56 ([…]). Vaccines used for the i.n. route contained immunogens alone or with compound 56 (30 μg). After two times vaccination, mice were infected with 110 plaque-forming units (PFU) of live PR8 virus by intronasal.
A mouse-vaccination model was applied with an antigen […] to evaluate anti-influenza efficacy. Five mice per group were immunized two times with compound 56 and NPI/II. After two times vaccination, mice were infected with 110 plaque-forming units (PFU) of live PR8 virus by intronasal.

[3] = system: E.G7-OVA (OVA-expressing EL4 lymphoma) tumors; experiment: Tumor challenge: OVA vaccine with adjuvant in E.G7-OVA tumor bearing mice; assay type: in vivo, C57BL/6 mice; conditions: Days 7, 14; for tumor growth suppression compared with the control group (PBS): 100 μg OVA with or without 50 μg adjuvant
Experimental: Female C57BL/6 mice 6-8 weeks of age obtained from NLAC Taiwan. Mice were injected s.c. with 200 μL of 1.5*10^6 E. G7-OVA (OVA-expressing EL4 lymphoma) cells in PBS. Tumor volumes were measured at regular intervals using a caliper and calculated by the following formula: tumor volume (mm^3)=(long diameter)*(short diameter)^2*0.52. When the average tumor volume reached […] (day 7), 100 μL of 100 μg OVA in PBS with or without 50 μg compound 56, alum, Qs-21 and GPI0100 was injected s.c. around the tumor. PBS (200 μL) was used as a control.
A mouse-vaccination model was applied with an antigen OVA to evaluate anti-tumor efficacy. […] The evaluation of compound 56, and positive control groups (alum, Qs-21 and GPI-0100) anti-tumor efficacy were analyzed by caliper.

SARS-CoV-2 spike protein = experiment: ELISA of serum SARS-CoV-2-specific IgG after vaccination with spike protein and adjuvant; assay type: in vivo, C57BL/6 mice

Compound	cytokine positive CD4+ T-cells [1]	frequency of CD8+ T-cells positive for IFN-γ or TNF-α as compared to mice vaccinated with GPI-0100 [1]	inducing IL-2 (ELISpot) [2]	secretion of cytokines IFNγ (ELISpot) compared with GPI0100 [2]	tumor growth suppression compared with the control group (PBS) [3]	other results
CC1O[C@@H](OC(=O)[C@]23CCC(C)(C)CC2C2=CCC4C5(C)CC[C@H](O[C@@H]6OC(C(=O)NCCCCCCCCc7ccc(Oc8ccccc8)cc7)[C@@H](O)C(O)C6O)C(C)(C=O)C5CCC4(C)C2(C)CC3O)C(O[C@@H]2OC(C)[C@H](O[C@@H]3OC[C@@H](O)C(O)C3O)C(O)C2O)C(O)[C@H]1O (stereo partly drawn) [Compound 56, 3-O—(N-(8-(4-Phenoxyhenyl)octyl)-β-D-glucopyranosyluronamide)-28-O-(β-D-xylopyranosyl-(1→4)-α-L-rhamnopyranosyl-(1→2)-β-D-fucopyranosyl) quillaic ester]	no cytokine positive CD4^+ T-cells were detected	higher frequency	moderate	three to four times more	significant tumor growth suppression effect	abnormality on activity and diet behavior (Female BALB/c mice; 100 μg to 1000 μg, 7 days): no obvious abnormality; survival in acute toxicity test (Female BALB/c mice; 100 μg to 1000 μg, 7 days): all of the mice were survive; number of surviving animal per group of 5 mice (Female BALB/c mice; Dose 100 μg, 7 days): 5/5; number of surviving animal per group of 5 mice (Female BALB/c mice; Dose 200 μg, 7 days): 5/5; number of surviving animal per group of 5 mice (Female BALB/c mice; Dose 500 μg, 7 days): 5/5; number of surviving animal per group of 5 mice (Female BALB/c mice; Dose 1000 μg, 7 days): 5/5; hepato somatic index compared to control group (Female BALB/c mice; all experimental groups, n=5): no change; spleen somatic index compared to control group (Female BALB/c mice; all experimental groups, n=5): no change; percentage of median weight change of mice (Female BALB/c mice; increased dose of saponin adjuvant, 5 days, n=5): less than 5%; survival rate following PR8 infection compared to NP I/II peptides alone (PR8 virus): higher survival rate; survival rate of tumor bearing mice ([3]; 100 μg OVA + 50 μg adjuvant): highest survival rate; increase of antibody titer (SARS-CoV-2 spike protein; SARS-CoV-2 (2 μg) + Compound 56 (50 μg) vs SARS-CoV-2 (10 μg) + Alum (10 μg), only 20% of antigen): 1000 fold; level of SARS-CoV-2-specific IgG antibody production (SARS-CoV-2 spike protein; SARS-CoV-2 (2 μg) + Compound 56 (50 μg), s.c.): highest level of antibody production
CC1O[C@@H](OC(=O)[C@]23CCC(C)(C)CC2C2=CCC4C5(C)CC[C@H](O[C@@H]6OC(C(=O)NCCCCCCCCc7ccc(N8CCOCC8)cc7)[C@@H](O)C(O)C6O)C(C)(C=O)C5CCC4(C)[C@]2(C)CC3O)C(O[C@@H]2OC(C)[C@H](O[C@@H]3OC[C@@H](O)C(O)C3O)C(O)C2O)C(O)[C@H]1O (stereo partly drawn) [Compound 62, 3-O—(N-(8-(4-morpholinophen-1-yl)octyl)-β-D-glucopyranosyluronamide)-28-O-(β-D-xylopyranosyl-(1→4)-α-L-rhamnopyranosyl-(1-2)-β-D-fucopyranosyl) quillaic ester]	no cytokine positive CD4^+ T-cells were detected	higher frequency				
CC1O[C@@H](OC(=O)[C@]23CCC(C)(C)CC2C2=CCC4C5(C)CC[C@H](O[C@@H]6OC(C(=O)NCCCCCCCCc7ccc(Oc8ccccc8)cc7)[C@@H](O)C(O)C6O)C(C)(C=O)C5CCC4(C)[C@]2(C)CC3O)C(O[C@@H]2OC(C)[C@H](O[C@@H]3OC[C@@H](O)C(O)C3O)C(O[C@@H]3OC(CO)[C@@H](O)C(O)C3O)C2O)C(O)[C@H]1O (stereo partly drawn) [Compound 79, 3-O—(N-(8-(4-Phenoxyhenyl)octyl)-β-D-glucopyranosyluronamide)-28-O-(β-D-glucopyranosyl-(1→3)-(β-D-xylopyranosyl-(1-4))-α-L-rhamnopyranosyl-(1→2)-β-D-fucopyranosyl) quillaic ester]	no cytokine positive CD4^+ T-cells were detected	higher frequency	moderate	three to four times more		
Alum [reference compound]					slight tumor growth suppression at first	
OVA: antigen OVA used in the tumor vaccination model					slight tumor growth suppression at first	
Qs-21 [reference compound]					significant tumor growth suppression effect	
